Test system: adult patients with essential tremor
Assay: Example 16: accelerometer-based (Kinesia ONE) TETRAS upper limb score
Format: in vivo, human
Description: Accelerometer (Kinesia ONE) TETRAS assessments were generally consistent with those conducted at the clinic. Accelerometer upper limb score values are summarized for Part A, the open-label titration phase of Part B, and the randomized withdrawal phase of Part B in Table 37, Table 38, and Table 39, respectively

[1] = Part B Open-Label Titration (N = 17), Day 42, Post - dose
[2] = Part B Open-Label Titration (N = 17), Day 42, Pre - dose
[3] = Part B Open-Label Titration, pre-dose baseline upper limb scores ≥10 (N = 12), Day 1, Post - dose
[4] = Part B Open-Label Titration, pre-dose baseline upper limb scores ≥10 (N = 12), Day 7
[5] = Part B Open-Label Titration, pre-dose baseline upper limb scores ≥10 (N = 12), Day 21
[6] = Part B Open-Label Titration, pre-dose baseline upper limb scores ≥10 (N = 12), Day 42, Post - dose
[7] = Part B Open-Label Titration, pre-dose baseline upper limb scores ≥10 (N = 12), Day 42, Pre - dose

CC(C)(C)NC(=O)CN1CCC(CNC(=O)c2cc(F)cc(Cl)c2)CC1 [compound of formula (I), N-((1-(2-(tert-butylamino)-2-oxoethyl)piperidin-4-yl)methyl)-3-chloro-5-fluorobenzamide]
Percentage Change from Baseline in Tremor Amplitude, Median (Part B Open-Label Titration (N = 17), Day 21): −17.46% | Accelerometer-Based Upper Limb Score, Change from Baseline, LS Mean (SE) [1]: −1.798 (0.4511) | Accelerometer-Based Upper Limb Score, Change from Baseline, Mean (SD) [1]: −1.73 (2.009) | Accelerometer-Based Upper Limb Score, Change from Baseline, Median [1]: −2.40 | Accelerometer-Based Upper Limb Score, observed, Mean (SD) [1]: 9.44 (2.857) | Accelerometer-Based Upper Limb Score, observed, Median [1]: 8.60 | LS Mean Percentage Change in Tremor Amplitude [1]: −29.2% | Percentage Change from Baseline in Tremor Amplitude, Mean (SD) [1]: −24.06 (27.567) % | Percentage Change from Baseline in Tremor Amplitude, Median [1]: −36.90% | Accelerometer-Based Upper Limb Score, Change from Baseline, LS Mean (SE) [2]: −1.766 (0.5175) | Accelerometer-Based Upper Limb Score, Change from Baseline, Mean (SD) [2]: −1.70 (1.829) | Accelerometer-Based Upper Limb Score, Change from Baseline, Median [2]: −2.00 | Accelerometer-Based Upper Limb Score, observed, Mean (SD) [2]: 9.48 (3.369) | Accelerometer-Based Upper Limb Score, observed, Median [2]: 9.65 | LS Mean Percentage Change in Tremor Amplitude [2]: −28.7% | Percentage Change from Baseline in Tremor Amplitude, Mean (SD) [2]: −24.79 (26.969) % | Percentage Change from Baseline in Tremor Amplitude, Median [2]: −31.87% | Accelerometer-Based Upper Limb Score, Change from Baseline, LS Mean (SE) [3]: −0.764 (0.4030) | Accelerometer-Based Upper Limb Score, Change from Baseline, Mean (SD) [3]: −0.75 (1.696) | Accelerometer-Based Upper Limb Score, Change from Baseline, Median [3]: −0.93 | Accelerometer-Based Upper Limb Score, observed, Mean (SD) [3]: 11.00 (2.303) | Accelerometer-Based Upper Limb Score, observed, Median [3]: 10.95 | LS Mean Percentage Change in Tremor Amplitude [3]: −13.6% | Percentage Change from Baseline in Tremor Amplitude, Mean (SD) [3]: −11.30 (25.126) % | Percentage Change from Baseline in Tremor Amplitude, Median [3]: −16.10% | Accelerometer-Based Upper Limb Score, Change from Baseline, LS Mean (SE) [4]: −1.677 (0.4345) | Accelerometer-Based Upper Limb Score, Change from Baseline, Mean (SD) [4]: −2.03 (1.939) | Accelerometer-Based Upper Limb Score, Change from Baseline, Median [4]: −2.05 | Accelerometer-Based Upper Limb Score, observed, Mean (SD) [4]: 9.96 (3.151) | Accelerometer-Based Upper Limb Score, observed, Median [4]: 11.10 | LS Mean Percentage Change in Tremor Amplitude [4]: −27.5% | Percentage Change from Baseline in Tremor Amplitude, Mean (SD) [4]: −28.60 (24.257) % | Percentage Change from Baseline in Tremor Amplitude, Median [4]: −32.52% | Accelerometer-Based Upper Limb Score, Change from Baseline, LS Mean (SE) [5]: −2.295 (0.6539) | Accelerometer-Based Upper Limb Score, Change from Baseline, Mean (SD) [5]: −2.04 (2.248) | Accelerometer-Based Upper Limb Score, Change from Baseline, Median [5]: −1.48 | Accelerometer-Based Upper Limb Score, observed, Mean (SD) [5]: 9.91 (2.999) | Accelerometer-Based Upper Limb Score, observed, Median [5]: 10.98 | LS Mean Percentage Change in Tremor Amplitude [5]: −35.6% | Percentage Change from Baseline in Tremor Amplitude, Mean (SD) [5]: −27.37 (27.794) % | Percentage Change from Baseline in Tremor Amplitude, Median [5]: −24.34% | Accelerometer-Based Upper Limb Score, Change from Baseline, LS Mean (SE) [6]: −1.818 (0.5342) | Accelerometer-Based Upper Limb Score, Change from Baseline, Mean (SD) [6]: −1.87 (2.027) | Accelerometer-Based Upper Limb Score, Change from Baseline, Median [6]: −2.40 | Accelerometer-Based Upper Limb Score, observed, Mean (SD) [6]: 9.93 (2.878) | Accelerometer-Based Upper Limb Score, observed, Median [6]: 10.40 | LS Mean Percentage Change in Tremor Amplitude [6]: −29.4% | Percentage Change from Baseline in Tremor Amplitude, Mean (SD) [6]: −26.06 (27.100) % | Percentage Change from Baseline in Tremor Amplitude, Median [6]: −36.90% | Accelerometer-Based Upper Limb Score, Change from Baseline, LS Mean (SE) [7]: −1.559 (0.5803) | Accelerometer-Based Upper Limb Score, Change from Baseline, Mean (SD) [7]: −1.57 (1.914) | Accelerometer-Based Upper Limb Score, Change from Baseline, Median [7]: −2.00 | Accelerometer-Based Upper Limb Score, observed, Mean (SD) [7]: 10.23 (3.244) | Accelerometer-Based Upper Limb Score, observed, Median [7]: 11.15 | LS Mean Percentage Change in Tremor Amplitude [7]: −25.9% | Percentage Change from Baseline in Tremor Amplitude, Mean (SD) [7]: −22.96 (28.661) % | Percentage Change from Baseline in Tremor Amplitude, Median [7]: −31.87%
